Data: patent US9580465B2, “Tissue protective peptides and peptide analogs for preventing and treating diseases and disorders associated with tissue damage” (ARAIM PHARMACEUTICALS, INC., priority 2008, dated 2017)
Values joined by “and” are separate entries in the source; they are usually repeats but may differ in a detail not shown here. Identical values can stand only once. “Also recorded” adds a separate entry of the source. Square brackets hold non-standard residues; d marks the D form. Ends that are not written are not given here.

Experiments:
[1] = tested on: cisplatin induced neuropathy; test: Cisplatin induced peripheral neuropathy (hotplate latency); assay type: in vivo, rats; settings: CDDT 2 mg/kg i.p. twice a week; peptide 0.4 μg/kg three times a week for 5 weeks; FIG. 11
Description: Also, CDDT is known to induce peripheral neuropathy, among other toxicities. Following the experimental design described above for renal function, the ability of Peptide IC to protect against peripheral neuropathy was also evaluated. 2 mg/kg CDDT was administered intraperitoneally, twice a week for 5 weeks. Peptide IC was simultaneously administered at a dose of 0.4 μg/kg, three times a week for 5 weeks. Neuropathy was evaluated by hotplate latency, the delay period between contact of the rat's foot to a warm surface, and the retraction of the foot.

[2] = tested on: cisplatin-induced nephropathy; test: Cisplatin induced nephropathy; assay type: in vivo, rats; settings: CDDT 2 mg/kg i.p. twice a week; peptide 0.4 μg/kg three times a week for 5 weeks; FIG. 10
Description: Cancer chemotherapeutic agents such as cisplatin (CDDT) are known to induce renal injury among other toxicities. The ability of Peptide IC to protect rats form cisplatin-induced nephropathy was evaluated by administering 2 mg/kg CDDT intraperitoneally, twice a week for 5 weeks. Peptide IC was simultaneously administered at a dose of 0.4 μg/kg, three times a week for 5 weeks. Renal function was evaluated by measuring the volume of urine production.

[3] = tested on: middle cerebral artery occlusion; test: Middle cerebral artery occlusion model; assay type: in vivo, Sprague Dawley rats; settings: after MCAO; 2 μg/kg bw i.v. upon reperfusion, then three injections at 2-hour intervals; FIG. 5
Description: Sprague Dawley rats (8 per group) are subjected to the following MCAO protocol Surgery was performed in accordance with the teachings of Brines et al, 2000, PNAS USA 97:10526-10531 (hereby incorporated by reference in its entirety. Briefly, the rats are anesthetized with chloral hydrate (400 mg/kg-bw, i.p.), the carotid arteries were visualized, and the right carotid was occluded by two sutures and severed. A burr hole adjacent and rostral to the right orbit allowed visualization of the middle cerebral artery (“MCA”), which was cauterized distal to the rhinal artery. To produce a penumbra (border zone) surrounding this fixed MCA lesion, the contralateral carotid artery was occluded for 1 hour by using […] provided by a fine forceps and then re-opened.
The rats were administered saline, Peptide ID as a single i.v. dose (2 μg/kg bw), or Peptide IX, […], SEQ ID NO: 301), a scrambled version of Peptide IC, SEQ ID NO: 281, as a single Lv. dose (2 μg/kg bw) upon reperfusion, followed by three additional injections at 2-hour intervals. For assessment of injury, rats are subjected to behavioral testing or the volume of the lesion is determined by tetrazolium staining of brain sections performed 24 hours post surgery in accordance with the previously noted protocol.
The volume of the lesion was then determined by tetrazolium staining of brain sections performed 24 hours post surgery.
Rats were also tested in a foot fault behavioral protocol. Rats were tested on an elevated stainless steel grid floor 30 cm×30 cm with grid size of 30 mm according to the protocol of Markgraf et al., 1992, Brain Research 575:238-246 (hereby incorporated by reference in its entirety). When placed on the grid, a rat would attempt to move around and occasionally place a foot, rather than on the grid, through a grid opening (“foot fault”). The number of foot faults was measured for a 1 minute period.
The number of foot faults is indicative of the cognitive impairment of the rats due to the MCAO, the fewer the number of foot faults the less cognitive impairment.

histamine = test: Histamine induced wheal formation, peptide given at time of challenge; assay type: in vivo, Sprague-Dawley rats; settings: 30 μg/kg at time of histamine challenge
Description: Under isoflurane anesthesia, 12 Sprague-Dawley rats' abdomens were shaved and depilated. Each rat was then injected intravenously (via internal jugular) with a dilute solution of Evans Blue (30 mg/ml in saline, 1 ml/kg bw). After 5 minutes, 6 small doses of histamine (Histamine diphosphate, 20 microliters administered intradermally) in a rectangular pattern on each rat's abdomen. After fifteen minutes, when the wheal reaches its maximum size the wheal is photographed and the blister area was determined by digital planimetry. To test the efficacy of various peptides, the peptide of interest was administered to the rats intravenously shortly after the histamine injection.
Rats received either saline, Peptide IY (30 μg/kg), Peptide ID (30 μg/kg), or Peptide IW (30 μg/kg) at time of histamine challenge.
Rats received either saline, peptide JA (30 μg/kg), peptide IZ (30 μg/kg), peptide IW (30 μg/kg) or peptide ID (30 μg/kg) at time of histamine challenge.

pressure ulcer = test: Decubitus ulcer (pressure sore) assay; assay type: in vivo, Sprauge-Dawley rats; settings: 30 μg/kg sc daily; compared with all groups; FIG. 20
Description: A decubitus ulcer (pressure sore) assay was performed on 24 adult Sprauge-Dawley rats in accordance with the disclosure of Pierce et al., Selective A2A adenosine receptor activation reduces skin pressure ulcer formation and inflammation, Am J Physiol Heart Circ Physiol 281:67-74, 2001. Briefly, a ferromagnetic steel plate was implanted under a dorsal region of the rats skin. A rectangular permanent magnet was applied to the area of the skin under which the plate was implanted in order to compress the skin between the plate and the magnet. This compression reduced the flow of blood to the skin causing ischemia. The rats were subjected to a cycle of ischemia-reperfusion (2 hours ischemia with a 0.5 hour reperfusion) for a 72-hour period. […] Daily the area of the wound on each rat was measured for a period of 12 days.

bilateral renal ischemia = test: Bilateral renal ischemia assay; assay type: in vivo, C57/BL6 mice
Description: Sixty male C57/BL6 mice (˜25 g; Charles River Laboratories) were anesthetized with ketamine (150 mg/kg) and xylazine (15 mg/kg) i.p. Each animal was placed on a homeothermic blanket set at 37° C., and after a mid-line laparotomy, the renal pedicles were clamped for 30 minutes using nontraumatic vascular clamps. Peptide ID was administered at the indicated dose via i.p. Injection at 1 minute, 6 hours, and 12 hours after reperfusion. In a single dose study, the mice received a control (PBS), 1 μg/kg of Peptide IG at 1 minute, 1 μg/kg of Peptide IG at 30 minutes, 1 μg/kg of Peptide ID at 6 hours, or 10 μg/kg of Peptide ID at 6 hours (12 mice per group). In a multiple dose study, the mice received either multiple doses of a control (PBS), 0.1 μg/kg of Peptide ID, 1 μg/kg of Peptide ID, or 10 μg/kg of Peptide ID at 1 minute, 6 hours and 12 hours into reperfusion.
Twenty-four hours later, mice were reanesthetized and blood was obtained by cardiac puncture. Plasma urea and creatine were used as indicators of renal dysfunction and aspartate aminotransferase was used as an indicator of renal injury. Data were analyzed using ANOVA followed by Dunnett's post hoc test comparison.

9 L gliosarcoma cells = test: 9 L gliosarcoma implantation model, delayed treatment; assay type: in vivo, CD Fisher rats; settings: 25 nmole/kg i.p. daily starting two weeks after implantation, three weeks, FIG. 13, 14
Description: In accordance with the accordance with the protocol of Lampson et al. Cancer Res. 53:176-82:1993 described above, CD Fisher rats were implanted with 9 L gliosarcoma cells transfected with the LacZ gene by use of a Hamilton syringe. 100,000 cells in 10 microliters were injected into the right caudate.
ID with a short plasma half life, another receiving Peptide IW (pegylated form of Peptide IC) and the third group received saline. Peptides were given at a dose of 25 nmole/kg body weight. Three weeks later, the animals were sacrificed and serial 1 mm thick coronal sections cut through the brain and incubated with 5-bromo-4-chloro-3-indolyl-[beta]-D-galactopyranoside (Xgal). Tumor cells (containing the LacZ gene) metabolized Xgal into a dark blue stain, localizing the extent of tumor. High resolution digital images were obtained and the areas stained blue determined using planimetric methodology. Data is expressed as total area of tumor infiltration.

Substance: QEQLERALNSS (Helix B amino acids derived Peptide IC) [exterior-presenting amino acids of helix B of EPO]
- hotplate latency (time to withdraw paw) [1]: prevented the appearance of peripheral neuropathy; also recorded: substantially similar to the control group (PBS)
- volume of urine production (renal function) [2]: protected against renal dysfunction due to CDDT; also recorded: substantially like that of the control (PBS) group

Substance: LSEQARNQSEL [Peptide IX, scrambled version of Peptide IC; called Peptide JA in b476, reference compound]
- number of foot faults in 1 minute period [3]: 20.1±2.1 foot faults
- wheal area (lesion area) (histamine; FIG. 19): about 0.6 cm^2

Substance: GLpLSEARNQSEL [Peptide IY, reference compound]
- anti-inflammatory activity (histamine; FIG. 18): did not exhibit anti-inflammatory activity
- wheal area (lesion area) (histamine; FIG. 18): about 0.6 cm^2

Substance: NAIIKNAYKKG (Beta endorphin derived Peptide IG) [beta endorphin region]
- wound (ulcer) size (area) (pressure ulcer): smallest wound size

Substance: SSNLARELQEQ ([dS][dS][dN][dL][dA][dR][dE][dL][dQ][dE][dQ]; also: retro-inverso) [Peptide IZ, Retro Inverso Peptide IC]
- wheal area (lesion area) (histamine; FIG. 19): ~0.4 cm^2 and 0.35 cm^2

Substance: GSWQRSLQDTE (Glucagon derived Peptide IH) [glucagon region]
- creatinine, urea and aspartate aminotransferase (biochemical markers of renal dysfunction) (bilateral renal ischemia; multiple doses 1 μg/kg at 1 minute, 6 hours and 12 hours into reperfusion, FIG. 7): reduction in these biochemical markers of renal dysfunction
- creatinine, urea and aspartate aminotransferase (biochemical markers of renal dysfunction) (bilateral renal ischemia; multiple doses 10 μg/kg at 1 minute, 6 hours and 12 hours into reperfusion, FIG. 7): reduction in these biochemical markers of renal dysfunction
- creatinine, urea and aspartate aminotransferase (biochemical markers of renal dysfunction) (bilateral renal ischemia; single dose 1 μg/kg at 6 hours into reperfusion, 24 hrs of reperfusion, FIG. 6): reduction in these biochemical markers of renal dysfunction
- creatinine, urea and aspartate aminotransferase (biochemical markers of renal dysfunction) (bilateral renal ischemia; single dose 10 μg/kg at 6 hours into reperfusion, 24 hrs of reperfusion, FIG. 6): reduction in these biochemical markers of renal dysfunction

Substance: PEG-QEQLERALNSS (XEQLERALNSS; PEG; Peptide IW) [pegylated form of Peptide IC, extended half-life peptide]
- tumor size (total area of tumor infiltration) (9 L gliosarcoma cells): marked reduction in tumor size; also recorded: exhibited the best outcomes; also recorded: reduction in size of the tumor equivalent to that achieved by immediate treatment with Peptide ID
- tumor size (total area of tumor infiltration) (9 L gliosarcoma cells; listed as Peptide 1W): reduced the size of tumor
- wheal area (lesion area) (histamine; FIG. 18): ~0.3 cm^2
